Results published in patent publication US20070093520A1, “Method of treatment of diarrhea-predominant irritable bowel syndrome in a subject” (priority 2005, published 2007).

System: diarrhea-predominant IBS subjects
Test: 3007 Study: open-label 52-week safety study, adverse events and withdrawals
Conditions: Overall

## Cc1nccn1C[C@H]1CCc2c(c3cccc4c3n2CCC4)C1=O [cilansetron, (R)-(−)-4,5,6,8,9,10-hexahydro-10-[(2-methyl-1H-imidazol-1-yl)methyl]-11H-pyrido-[3,2,1-jk]-carbazol-11-one]
  TEAE: Memory Loss (Excl Dementia): 1 (<1%) n (%)
  TEAE: Meniere's Disease: 1 (<1%) n (%)
  TEAE: Menorrhagia*: 2 (<1%) n (%)
  TEAE: Menstruation Irregular*: 1 (<1%) n (%)
  TEAE: Menstruation and Uterine Bleeding NEC*: 2 (<1%) n (%)
  TEAE: Menstruation with Decreased Bleeding*: 1 (<1%) n (%)
  TEAE: Menstruation with Increased Bleeding*: 3 (<1%) n (%)
  TEAE: Mental Disorders NEC: 1 (<1%) n (%)
  TEAE: Mental Status Changes: 1 (<1%) n (%)
  TEAE: Metabolic Bone Disorders: 3 (<1%) n (%)
  TEAE: Metabolism Tests NEC: 6 (1%) n (%)
  TEAE: Metabolism and Nutrition Disorders: 21 (4%) n (%)
  TEAE: Middle Ear Disorders NEC: 1 (<1%) n (%)
  TEAE: Migraine Headaches: 5 (<1%) n (%)
  TEAE: Migraine NOS: 5 (<1%) n (%)
  TEAE: Mineral and Electrolyte Analyses: 2 (<1%) n (%)
  TEAE: Monoarthritis: 2 (<1%) n (%)
  TEAE: Monocyte Count Decreased: 2 (<1%) n (%)
  TEAE: Monocyte Count Increased: 2 (<1%) n (%)
  TEAE: Mononeuropathies: 3 (<1%) n (%)
  TEAE: Motion Sickness: 1 (<1%) n (%)
  TEAE: Movement Disorder NOS: 1 (<1%) n (%)
  TEAE: Muscle Cramps: 10 (2%) n (%)
  TEAE: Muscle Infections and Inflammations: 1 (<1%) n (%)
  TEAE: Muscle Pains: 3 (<1%) n (%)
  TEAE: Muscle Related Signs and Symptoms NEC: 11 (2%) n (%)
  TEAE: Muscle Spasms: 1 (<1%) n (%)
  TEAE: Muscle Strain: 8 (1%) n (%)
  TEAE: Muscle Tone Abnormalities: 1 (<1%) n (%)
  TEAE: Muscle, Tendon and Ligament Injuries: 10 (2%) n (%)
  TEAE: Musculoskeletal Chest Pain: 1 (<1%) n (%)
  TEAE: Musculoskeletal and Connective Tissue Disorders: 87 (16%) n (%)
  TEAE: Musculoskeletal and Connective Tissue Signs and Symptoms NEC: 33 (6%) n (%)
  TEAE: Musculoskeletal and Soft Tissue Imaging Procedures: 1 (<1%) n (%)
  TEAE: Myalgia: 2 (<1%) n (%)
  TEAE: Myasthenia Gravis: 1 (<1%) n (%)
  TEAE: Mycoplasma Infections: 1 (<1%) n (%)
  TEAE: Myeloradiculopathy: 1 (<1%) n (%)
  TEAE: Myocardial Infarction: 1 (<1%) n (%)
  TEAE: Myositis: 1 (<1%) n (%)
  TEAE: Nail Fungal Infection NOS: 2 (<1%) n (%)
  TEAE: Nail Infection NOS: 1 (<1%) n (%)
  TEAE: Nail and Nail Bed Conditions (Excl Infections and Infestations): 1 (<1%) n (%)
  TEAE: Nasal Congestion and Inflammations: 8 (1%) n (%)
  TEAE: Nasopharyngitis: 28 (5%) n (%)
  TEAE: Nausea: 25 (5%) n (%)
  TEAE: Nausea and Vomiting Symptoms: 33 (6%) n (%)
  TEAE: Neck Pain: 1 (<1%) n (%)
  TEAE: Neoplasms Benign Site Unspecified NEC: 2 (<1%) n (%)
  TEAE: Neoplasms Benign, Malignant and Unspecified (Incl Cysts and Polyps): 15 (3%) n (%)
  TEAE: Nervous System Disorders: 64 (12%) n (%)
  TEAE: Neurological Signs and Symptoms NEC: 6 (1%) n (%)
  TEAE: Neuromuscular Junction Dysfunction: 1 (<1%) n (%)
  TEAE: Neutrophil Count Decreased: 3 (<1%) n (%)
  TEAE: Night Cramps: 1 (<1%) n (%)
  TEAE: Nitrite Urine Present: 2 (<1%) n (%)
  TEAE: Non-Accidental Overdose: 1 (<1%) n (%)
  TEAE: Non-Site Specific Injuries NEC: 11 (2%) n (%)
  TEAE: Non-Site Specific Procedural Complications: 8 (1%) n (%)
  TEAE: Normal Pregnancy, Labour and Delivery*: 1 (<1%) n (%)
  TEAE: Ocular Disorders NEC: 1 (<1%) n (%)
  TEAE: Ocular Nerve and Muscle Disorders: 2 (<1%) n (%)
  TEAE: Oedema NEC: 7 (1%) n (%)
  TEAE: Oedema NOS: 1 (<1%) n (%)
  TEAE: Oedema Peripheral: 6 (1%) n (%)
  TEAE: Ophthalmic Function Diagnostic Procedures: 2 (<1%) n (%)
  TEAE: Oral Dryness and Saliva Altered: 2 (<1%) n (%)
  TEAE: Osteoarthritis Aggravated: 3 (<1%) n (%)
  TEAE: Osteoarthropathies: 4 (<1%) n (%)
  TEAE: Osteopenia: 1 (<1%) n (%)
  TEAE: Osteoporosis NOS: 3 (<1%) n (%)
  TEAE: Otitis Media NOS: 1 (<1%) n (%)
  TEAE: Ovarian Cancer NOS*: 1 (<1%) n (%)
  TEAE: Ovarian Cystadenofibroma*: 1 (<1%) n (%)
  TEAE: Ovarian Neoplasms Benign*: 1 (<1%) n (%)
  TEAE: Ovarian Neoplasms Malignant (Excl Germ Cell)*: 1 (<1%) n (%)
  TEAE: Overdoses: 1 (<1%) n (%)
  TEAE: Pain NOS: 3 (<1%) n (%)
  TEAE: Pain and Discomfort NEC: 12 (2%) n (%)
  TEAE: Pain in Limb: 6 (1%) n (%)
  TEAE: Palpitations: 4 (<1%) n (%)
  TEAE: Panic Attack: 1 (<1%) n (%)
  TEAE: Panic Symptoms: 1 (<1%) n (%)
  TEAE: Papulosquamous Conditions: 1 (<1%) n (%)
  TEAE: Paraesthesias and Dysaesthesias: 2 (<1%) n (%)
